The source made the active and inactive calls. The rule behind the calls is not given here.
Experiments:
Mus musculus [1] = assay: Antiemphysema activity in wild type mouse assessed as reduction in intranasal elastase-induced lung volume at 30 mg/kg, ip qd for 28 days measured after 18 hrs of post mortem by volume displacement technique relative to vehicle-treated control; type: functional, organism-based; parameters: dose 30 mg/kg
Mus musculus [2] = assay: Antiemphysema activity in wild type mouse assessed as shorter chord length at 30 mg/kg, ip qd for 28 days measured after 18 hrs of post mortem by volume displacement technique relative to vehicle-treated control; type: functional, organism-based; parameters: dose 30 mg/kg
Mus musculus [3] = assay: Effect on intransal elastase-induced LTB4 level in broncho alveolar lavage fluid in ip dosed mouse by ELISA (reference value: 93.1 +/- 26.1 pg/mL); type: functional, organism-based
Mus musculus [4] = assay: Antiemphysema activity in wild type mouse assessed as reduction in intranasal elastase-induced lung compliance at 30 mg/kg, ip qd for 28 days by flexivent relative to vehicle-treated control; type: functional, organism-based; parameters: dose 30 mg/kg
[5] = biological target: T1, Leukotriene A-4 hydrolase (Homo sapiens) (UniProt P09960); assay: Activation of aminopeptidase activity of LTA4H assessed as compound concentration required to 50% activation using L-alanine-p-nitroanilide as substrate by spectrophotometry
T1 sequence (whole entry): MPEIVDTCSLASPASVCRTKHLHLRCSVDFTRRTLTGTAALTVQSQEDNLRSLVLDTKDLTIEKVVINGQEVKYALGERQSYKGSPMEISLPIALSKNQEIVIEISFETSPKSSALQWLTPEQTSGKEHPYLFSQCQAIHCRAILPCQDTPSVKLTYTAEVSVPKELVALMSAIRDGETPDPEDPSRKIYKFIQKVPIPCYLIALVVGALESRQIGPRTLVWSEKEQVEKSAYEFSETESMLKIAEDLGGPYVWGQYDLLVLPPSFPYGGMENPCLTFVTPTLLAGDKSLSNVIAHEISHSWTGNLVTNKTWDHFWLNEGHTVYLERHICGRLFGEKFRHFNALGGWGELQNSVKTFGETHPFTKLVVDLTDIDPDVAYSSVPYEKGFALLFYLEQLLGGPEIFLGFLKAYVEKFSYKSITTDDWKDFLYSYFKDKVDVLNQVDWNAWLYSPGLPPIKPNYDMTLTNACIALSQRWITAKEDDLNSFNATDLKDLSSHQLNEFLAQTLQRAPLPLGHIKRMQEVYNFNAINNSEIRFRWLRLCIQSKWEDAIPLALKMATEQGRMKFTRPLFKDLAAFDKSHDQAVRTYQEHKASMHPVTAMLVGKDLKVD

[6] = Chemical stability of the compound assessed as degradation at pH 6.8; type: physicochemical; settings: buffer
[7] = Toxicity in mouse; type: organism-based; settings: in vivo

Row | Activity (Mus musculus [3]) | Activity [5] | SMILES | Activity (Mus musculus [1]) | Activity (Mus musculus [2]) | Activity (Mus musculus [4]) | Stability [6] | MTD [7]
1 | inactive | 50 µM | COc1ccc(Cc2ccccc2)cc1 | Active | Active | Active | Stable | –
2 | – | – | COc1ccc(Oc2ccccc2)cc1 | – | – | – | Unstable | 30 mg/kg

— ChEMBL document CHEMBL1914340, “Effect of the leukotriene A4 hydrolase aminopeptidase augmentor 4-methoxydiphenylmethane in a pre-clinical model of pulmonary emphysema” (Bioorg Med Chem Lett, 2011)
